Reference: PMC3016957, “Identification of Myotropic Neuropeptides from the Brain and Corpus Cardiacum-Corpus Allatum Complex of the Beetle, Zophobas atratus” (Journal of Insect Science, 2010)
Entries after “also recorded” stand apart in the source; their conditions may differ.

Tests used:
[1] = tested on: semi-isolated Z. atratus heart; experiment: semi-isolated heart bioassay (video microscopy, continuously perfused heart); parameters: species or system Zophobas atratus; details: synthetic peptide 1×10^-9 M in saline, semi-isolated adult Z. atratus heart, n = 3–8 (Figure 8)
Description: All HPLC fractions were re-suspended in 100 µl of T. molitor saline (274 mM NaCl, 19 mM KCl, 9 mM CaCl2, 5 mM glucose, and 5 mM HEPES, pH 7.0), to a concentration of 1 brain or CC/CA equivalent, and assayed in vitro using a semi-isolated Z. atratus heart prepared according to Gäde and Rosinski ([1990]). In the bioassay, the video microscopy technique and the computer-based method of data acquisition and analysis were used to study the action of the fractions on continuously perfused heart preparations as described previously ([Marciniak et al. 2008]). The activities of tested fractions are presented as percentage changes in the control frequency of the heart contraction.
Synthetic peptides were dissolved in saline to yield a stock solution of 1 mM and were stored at -30 °C. Working dilutions (1×10^-9 M) were made from the stock solution in saline.

heart of T. molitor = details: cited from earlier work
Description: The most prominent ion signal (1257.8) in both the brain and CC/CA corresponds to leucomyosuppressin, a member of the FMRFamide family first characterized from the cockroach L. maderae ([Holman et al. 1986a]). […] These peptides are pleiotropic as their effects on insects include the modulation of muscle contractile activity ([Predel and Nachman 2001]; [Rosinski 1995]).

heart muscles in beetles = details: synthetic peptide; ref Rosinski 1995; cited from earlier work
Description: All HPLC fractions were re-suspended in 100 µl of T. molitor saline (274 mM NaCl, 19 mM KCl, 9 mM CaCl2, 5 mM glucose, and 5 mM HEPES, pH 7.0), to a concentration of 1 brain or CC/CA equivalent, and assayed in vitro using a semi-isolated Z. atratus heart prepared according to Gäde and Rosinski ([1990]). In the bioassay, the video microscopy technique and the computer-based method of data acquisition and analysis were used to study the action of the fractions on continuously perfused heart preparations as described previously ([Marciniak et al. 2008]). The activities of tested fractions are pre ... || An AKH (Tenmo-AKH: pELNFSPNWa) had previously been identified from the CC of both T. molitor and Z. atratus (formerly Z. rugipes) ([Gäde and Rosinski 1990]), whereas two AKHs (pELNFSTDWa and pELNFTPNWa) are present in T. castaneum ([Audsley and Weaver, 2008]; [Gäde et al 2008]). From mass analysis of Z. atratus CC, only AKH was identified by the precursor ions 1009.7 and 1025.7, which represent the Na^+ and K^+ adducts of Temno-AKH, and its sequence was confirmed by MALDI-PSD. The protonated form of AKH is not usually detected using MALDI-TOF MS ([Audsley and Weaver, 2003]). Fraction 31 from t ...

[2] = tested on: semi-isolated Z. atratus heart; details: ref Skonieczna and Rosinski 2004; cited from earlier work
Description: The most prominent ion signal (1257.8) in both the brain and CC/CA corresponds to leucomyosuppressin, a member of the FMRFamide family first characterized from the cockroach L. maderae ([Holman et al. 1986a]).

Substance: GRWGGFA [Trica-NVP-4 trunc, truncated NVP-like peptide-4 (GRWGGFA)]
- chronotropic effect on heart contractile activity (in words) [1]: no effect on heart activity
- chronotropic effect on heart contractile activity (in words) ([1]; listed as NVP-4 trunc.): no effect on heart contractile activity

Substance: PFCNAFTGCa [CCAP, crustacean cardioactive peptide]
- effect on contractions of the myocardium of T. molitor (heart of T. molitor; ref Furuya et al. 1993): stimulate contractions of the myocardium

Substance: Proctolin
- effect on beetle heart contractions (heart muscles in beetles): stimulates contractions of the heart muscles

Substance: SPPFAPRLa [Pyrokinin 2]
- chronotropic effect on heart contractile activity (in words) [1]: minor positive chronotropic effect
- chronotropic effect on heart contractile activity (in words) ([1]; listed as PK 2): neither synthetic PK 2 nor the corresponding HPLC fraction (25) of CC/CA extract are active

Substance: leucomyosuppressin [LMS]
- cardioinhibition in Z. atratus [2]: dose-dependent reversible cardioinhibition
- inhibition of heart contractile activity (percentage change in the control frequency of heart contraction) ([1]; means ± SEM): 30%
- cardioinhibition in T. molitor (heart of T. molitor; ref Skonieczna and Rosinski 2004): dose-dependent reversible cardioinhibition

Substance: pELNFSPNWa [AKH]
- effect on beetle heart contractions (heart muscles in beetles): positive chronotropic effects

Substance: pETSDDYGHLRFa [sulfakinin 1]
- chronotropic effect on heart contractile activity (in words) [1]: Neither sulfakinin 1 nor fraction 22 from the brain had any significant action; also recorded: no significant effects

Substance: pETSFTPRLa [Lem-PK]
- stimulatory activity on the heart of T. molitor (heart of T. molitor; ref Rosinski 1995): very little stimulatory activity
